# Laboratory results as given in patent US11007141B2, “Oral preparation and preparation method thereof” (GUANGZHOU XIANGXUE PHARMACEUTICAL CO., LTD., priority 2015, dated 2021).
# Read-outs that look alike come from different tables or passages of the source.
# Experiments:
# [1] = for Water (water-addition-precipitating critical point of drug solution): 100 mg drug; for dissolution in aqueous solution containing surfactant: magnetic stirring 1 hour
# Protocol: In this study, a dissolution test was performed using a single non-aqueous solvent ethanol.
# In this study, a dissolution test was also performed using composite solvents composed of PEG400 or PEG200 and absolute ethanol, respectively.
# In addition, in this study, dissolution tests were also performed using a single non-aqueous solvent propylene glycol, or a composite solvent composed of propylene glycol and other non-aqueous solvent.
# Next, the dilution stability of these two solvent systems was tested.
# [2] = Tablet stability at high temperature (60° C.), high humidity (92.5% RH), −20° C.; type: physicochemical
# [3] = API 0.5 mg/ml, 20% γ-CD, molar ratio 174:1
# Protocol: (§1) Different kinds of cyclodextrins were dissolved with an aqueous hydrochloric acid solution (0.1N) having a pH value of 1.2 to determine the saturation concentration of each cyclodextrin.
# A certain amount of API was weighed and added into an appropriate volume of the cyclodextrin solution. […] The clear solution after the pH adjustment was left to stand to observe the state of the solution after standing for 2 hours, 4 hours, and 24 hours.
# [4] = Concentration of drug-containing HP-β-CD preparation after filtration (HPLC); conditions: 21 mg/ml drug-containing preparation in 30% HP-β-CD, pH 1.2; API not completely dissolved after 30 minutes ultrasound; 0.45 μm PES filter
# [5] = Maximum solubility of cyclodextrins in hydrochloric acid solution pH 1.2
# Protocol: as §1
# (1) A certain amount of α-, β- and γ-cyclodextrin were weighed and added into a 10 mL volumetric flask, then an aqueous hydrochloric acid solution of pH 1.2 was gradually added until reaching the scale of the flask, and the flask was shocked and ultrasound was performed to dissolve the cyclodextrin. The maximum amount of cyclodextrin capable of being dissolved in a 10 mL solution was recorded.
structure (smiles),measurement,setting,value
O=C(Cc1ccc(-c2ccc(N3CCOCC3)cc2)cn1)NCc1cccc(F)c1.O=S(=O)(O)c1ccccc1 [KX2-361.benzene sulfonate],Water (water-addition-precipitating critical point of drug solution),"[1]; Cremophor EL 17.1 g, 40° C.",6.7 g
same,Water (water-addition-precipitating critical point of drug solution),"[1]; Solutolo HS-15 10 g, 40° C.",4.5 g
same,Water (water-addition-precipitating critical point of drug solution),"[1]; Solutolo HS-15 15 g, 28° C.",8.7 g
same,Water (water-addition-precipitating critical point of drug solution),"[1]; Solutolo HS-15 20 g, 28° C.",12.6 g
same,dissolution in aqueous solution containing surfactant,[1]; drug containing 10 mg of KX2-361 in 0.6% Poloxamer 188 aqueous solution (50 ml),failed to completely dissolve
same,dissolution in aqueous solution containing surfactant,[1]; drug containing 10 mg of KX2-361 in 2% Tween80 aqueous solution (50 ml),failed to completely dissolve
same,dissolution in aqueous solution containing surfactant,[1]; drug containing 10 mg of KX2-361 in 8% Solutol HS15 aqueous solution (50 ml),failed to completely dissolve
same,dissolution in aqueous solution containing surfactant,[1]; drug containing 10 mg of KX2-361 in 10% Cremophor EL aqueous solution (50 ml),failed to completely dissolve
same,dissolution in propylene glycol,"[1]; drug containing 50 mg of KX2-361 in 20 ml of propylene glycol alone, a trace of small particles still present",could substantially be dissolved
same,solubility in ethanol,[1]; ethanol (95% v/v),1120 to 2380 µg/mL
same,Total impurity (%),[2]; 0 day,0.33%
same,Total impurity (%),"[2]; High humidity, 20 days",0.31%
same,Total impurity (%),"[2]; High temperature, 10 days",0.32%
same,Total impurity (%),"[2]; High temperature, 20 days",0.32%
same,Total impurity (%),"[2]; −20° C., 20 days",0.36%
same,Solution phenomenon when the pH value was adjusted to 4,[3],turbid
same,"concentration after filtration, calibrated with HPLC",[4],20660 µg/mL
OC[C@H]1O[C@@H]2O[C@H]3[C@H](O)[C@@H](O)[C@@H](O[C@H]4[C@H](O)[C@@H](O)[C@@H](O[C@H]5[C@H](O)[C@@H](O)[C@@H](O[C@H]6[C@H](O)[C@@H](O)[C@@H](O[C@H]7[C@H](O)[C@@H](O)[C@@H](O[C@H]1[C@H](O)[C@H]2O)O[C@@H]7CO)O[C@@H]6CO)O[C@@H]5CO)O[C@@H]4CO)O[C@@H]3CO [α-cyclodextrin],maximum solubility,[5]; aqueous hydrochloric acid solution of a pH value of 1.2,about 8%
OC[C@H]1O[C@@H]2O[C@H]3[C@H](O)[C@@H](O)[C@@H](O[C@H]4[C@H](O)[C@@H](O)[C@@H](O[C@H]5[C@H](O)[C@@H](O)[C@@H](O[C@H]6[C@H](O)[C@@H](O)[C@@H](O[C@H]7[C@H](O)[C@@H](O)[C@@H](O[C@H]8[C@H](O)[C@@H](O)[C@@H](O[C@H]1[C@H](O)[C@H]2O)O[C@@H]8CO)O[C@@H]7CO)O[C@@H]6CO)O[C@@H]5CO)O[C@@H]4CO)O[C@@H]3CO [β-cyclodextrin],maximum solubility,[5],about 1%
OC[C@H]1O[C@@H]2O[C@H]3[C@H](O)[C@@H](O)[C@@H](O[C@H]4[C@H](O)[C@@H](O)[C@@H](O[C@H]5[C@H](O)[C@@H](O)[C@@H](O[C@H]6[C@H](O)[C@@H](O)[C@@H](O[C@H]7[C@H](O)[C@@H](O)[C@@H](O[C@H]8[C@H](O)[C@@H](O)[C@@H](O[C@H]9[C@H](O)[C@@H](O)[C@@H](O[C@H]1[C@H](O)[C@H]2O)O[C@@H]9CO)O[C@@H]8CO)O[C@@H]7CO)O[C@@H]6CO)O[C@@H]5CO)O[C@@H]4CO)O[C@@H]3CO [γ-cyclodextrin],maximum solubility,[5],about 20%
